Legend:
[1] = In-use Stability Assay (HPLC) of pimavanserin 34 mg capsule contents in liquid/soft food vehicles; assay type: physicochemical; conditions: for Assay: ambient; for Time 0 (%) assay: time 0, average (n=6) accuracy/recovery
Description: Analytical HPLC Stability Study experiments (Example 1) were performed on Agilent 1200 Series, or equivalent; Waters XBridge C18 column, 5 μm 150×4.6 mm; mobile phase: Solvent A: 50 mM ammonium bicarbonate, pH 8.0; Solvent B: acetonitrile/methanol, 80:20 (v/v); Flow rate: 1 mL/min; Inj. Volume 20 μL; Autosampler Temp. 5° C.; column temperature: 40° C., detection UV at 210 nm; sample concentration (as free base) assay: 0.068 mg/mL, impurity: 0.68 mg/mL; standard concentration (as free base) 0.068 mg/mL; PLOQ Std. 0.05% of 0.68 mg/mL; SST solution, 1% of 0.68 mg/mL (impurities A, C, D, E, F, and G); diluent for standards 80/20 (v/v) ethanol/water; diluent for samples, ethanol; run time 40 min; gradient method: 0 min mobile phase A (90%) and mobile phase B (10%) to 30 min mobile phase A (0%), and mobile phase B (100%); then 30.1 min to 40 min mobile phase A (90%), mobile phase B (10%).
The stability of pimavanserin for administration via a nasogastric (NG) tube was assessed by sprinkling the content of one pimavanserin 34 mg capsule in water, applesauce, vanilla Ensure, and non-pulp orange juice. Samples were tested at time 0, 2, 4, and 24 hours after storage at ambient conditions. Samples were prepared in triplicate and average (n=6) accuracy/recovery results from the assay method were used at time 0.
For each sample, one capsule was weighed, and the content of the capsule dropped into a 500 mL volumetric flask containing the amount of vehicle specified in Table 1. The empty capsule shell was weighed and discarded. The flasks were gently swirled to ensure the capsule contents were visually incorporated with the vehicle. The flasks were kept at ambient temperature for each time point 2, 4, and 24 hours. Time 0 samples were processed immediately.
At the specified time point, a stir bar and approximately 450 mL of diluent were added to the flask. The samples were stirred vigorously for 2 hours, and then left on the bench overnight. The following day the flasks were sonicated for approximately 15-30 minutes. The stir bar was removed and rinsed carefully with diluent into the flask, and then the flask was diluted to volume with diluent and mixed well by inversion. An aliquot of each solution was centrifuged for 5 minutes at 10000 rpm. The supernatant was transferred to a HPLC vial and injected for analysis.

[2] = Nasogastric Tube Compatibility Study, assay (HPLC); assay type: physicochemical
Description: Analytical HPLC Compatibility Study experiments (Example 2) were performed on Agilent 1200 Series, or equivalent; Waters XBridge C18 column, 5 μm 150×4.6 mm; mobile phase: Solvent A: 50 mM ammonium bicarbonate, pH 8.0; Solvent B: acetonitrile/methanol, 80:20 (v/v); Flow rate: 1 mL/min; Inj. Volume 60 μL; Autosampler Temp.: 5° C.; column temperature: 40° C.; the pooled limit of quantitation was 0.05% of 0.68 mg/mL; detection UV at 210 nm; sample concentration (as free base) assay: 0.034 mg/mL, impurity: 0.34 mg/mL; standard concentration (as free base) 0.034 mg/mL; PLOQ Std. 0.05% of 0.34 mg/mL; SST solution, 1% of 0.34 mg/mL (Impurities A, C, D, E, F, and G); diluent for standards 0.1N HCl; diluent for samples 0.1N HCl; run time, 40 min; gradient method: 0 min mobile phase A (90%) and mobile phase B (10%) to 30 min mobile phase A (0%), and mobile phase B (100%); then 30.1 min to 40 min mobile phase A (90%), mobile phase B (10%).
Three samples of pimavanserin in water (n=3) were prepared as follows. The content of one capsule was dropped into a 100 mL bottle, and the empty capsule shell was discarded. Approximately 40 mL of water was added into the bottle, and the bottle was swirled until the contents were disintegrated. Syringes were secured approximately 1 meter above the benchtop, and the plungers were removed. The Hydromer coating on the weighted top of the NG tube was activated by submerging the weight assembly in water for 10 seconds. The NG tube was flushed with 20 mL of water, and remaining water in the syringe and the NG tube was expelled with the help of the syringe plunger. The weighted tip of the NG tube was placed into 100 mL volumetric flasks on the benchtop.
For each sample, the aqueous dispersion was slowly poured into the syringe, allowing it to drain through the NG tube under gravity into the 100 mL collection volumetric flask. The original bottle containing the aqueous suspension of pimavanserin capsules was rinsed twice with 15 mL of water into the same syringe/NG tube system. The dispersion remaining in the syringe and NG tube was expelled with the help of the syringe plunger. Each flask was diluted to volume with 0.33N HCl (to make a final 0.1 N HCl concentration in the flask). The samples were sonicated for 15 minutes with intermediate shaking. A stir bar was added to the flask and the solution was stirred for 2 hours. An aliquot of each solution was centrifuged for 5 minutes at 10000 rom. The supernatant was transferred to a HPLC vial and injected for impurity analysis.
Samples were prepared by transferring the stock solution using a 2.0 mL volumetric pipet into a 20 mL volumetric flask, diluted to volume with 0.1 N HCl, and mixed well by inversion. An aliquot of each solution was centrifuged for 5 minutes at 10000 rpm. The supernatant was transferred to a HPLC vial and injected for analysis.
A “control” sample was prepared following the sample preparation procedure described above except it was not passed through a syringe/NG system. The content of one capsule was dropped into a 100 mL volumetric flask, and the empty capsule shell was discarded. Next 70 mL of water was added into the flask and swirled until the contents were completely disintegrated. The flask was diluted to volume with 0.33 N HCl (to make final 0.1N HCl concentration). The sample was sonicated for 15 minutes with intermediate shaking. A stir bar was dropped into the flask, and the solution was stirred for 2 hours. An aliquot was taken and centrifuged for 5 minutes at 10000 rpm. The supernatant was transferred to a HPLC vial and injected for impurity analysis.

CC(C)COc1ccc(CNC(=O)N(Cc2ccc(F)cc2)C2CCN(C)CC2)cc1 [Pimavanserin, N-(4-Fluorophenylmethyl)-N-(1-methylpiperidin-4-yl)-N′-(4-(2-methylpropyloxy)phenylmethyl)carbamide]
Assay ([1]; 34 mg capsule in Ensure 60 mL, T = 2 h): 100.3%
Assay ([1]; 34 mg capsule in Ensure 60 mL, T = 4 h): 100.7%
Assay ([1]; 34 mg capsule in Ensure 60 mL, T = 24 h): 98.1%
Assay ([1]; 34 mg capsule in applesauce 40 g, T = 2 h): 99.9%
Assay ([1]; 34 mg capsule in applesauce 40 g, T = 4 h): 97.7%
Assay ([1]; 34 mg capsule in applesauce 40 g, T = 24 h): 96.3%
Assay ([1]; 34 mg capsule in non-pulp orange juice 60 mL, T = 2 h): 99.2%
Assay ([1]; 34 mg capsule in non-pulp orange juice 60 mL, T = 4 h): 98.0%
Assay ([1]; 34 mg capsule in non-pulp orange juice 60 mL, T = 24 h): 98.3%
Assay ([1]; 34 mg capsule in water 40 mL, T = 2 h): 97.7%
Assay ([1]; 34 mg capsule in water 40 mL, T = 4 h): 95.6%
Assay ([1]; 34 mg capsule in water 40 mL, T = 24 h): 99.3%
Absolute Difference from Time 0 ([1]; Ensure, T = 2 h): 0.3%
Absolute Difference from Time 0 ([1]; Ensure, T = 4 h): 0.7%
Absolute Difference from Time 0 ([1]; Ensure, T = 24 h): 1.9%
Absolute Difference from Time 0 ([1]; applesauce, T = 2 h): 2.0%
Absolute Difference from Time 0 ([1]; applesauce, T = 4 h): 4.2%
Absolute Difference from Time 0 ([1]; applesauce, T = 24 h): 5.6%
Time 0 (%) assay ([1]; applesauce): 101.9%
Assay values difference from time 0 ([1]; individual capsules, up to 24 hours, all vehicles): ≤ 5%
Absolute Difference from Time 0 ([1]; orange juice, T = 2 h): 1.1%
Absolute Difference from Time 0 ([1]; orange juice, T = 4 h): 2.3%
Absolute Difference from Time 0 ([1]; orange juice, T = 24 h): 2.0%
Time 0 (%) assay ([1]; orange juice): 100.3%
stability in all vehicles ([1]; over 24 hours at ambient room temperature): acceptable
Time 0 (%) assay ([1]; vanilla Ensure): 100.0%
Absolute Difference from Time 0 ([1]; water, T = 2 h): 1.2%
Absolute Difference from Time 0 ([1]; water, T = 4 h): 3.3%
Absolute Difference from Time 0 ([1]; water, T = 24 h): 0.4%
Time 0 (%) assay ([1]; water): 98.9%
Assay (%) ([2]; 34 mg capsule in water passed through syringe/NG tube, sample N = 1): 92.2%
Assay (%) ([2]; 34 mg capsule in water passed through syringe/NG tube, sample N = 2): 92.7%
Assay (%) ([2]; 34 mg capsule in water passed through syringe/NG tube, sample N = 3): 96.3%
Assay (%) ([2]; NG Tube Control: capsule in water, not passed through syringe/NG system): 91.5%
difference of assay between control sample and mean of 3 NG tube samples ([2]; aqueous dispersion of 34 mg capsule): ≤ 2%
effect of in vitro administration through a NG tube on stability ([2]; capsule contents added to different vehicles): no effect
Assay Mean % (n = 6) ([2]; mean of NG tube samples): 93.8%
